Earlier results on 2 molecules are cited in patent US10537540B2, “Pharmaceutical composition for promoting nerve injury restoration and application thereof” (priority 2012, dated 2020).

The conditions of data set [1]: intravenous infusion of 5 g.
For data set [2], the system named is rat spinal cord injury model.

With `Cc1ncc(CO)c(CO)c1O.Cl` [vitamin B6], the Urine induced result in data set [1] is on record as “about 380 mL”.
For the molecule `Cc1c(C)c2c(c(C)c1OP(=O)([O-])OC1=C(O)[C@@H]([C@@H](O)CO)OC1=O)CC[C@@](C)(CCC[C@H](C)CCC[C@H](C)CCCC(C)C)O2.[K+]` [EPC-K1], the “Lipid peroxidation and free radicals after spinal cord injury” value in data set [2] is “significantly block lipid peroxidation and remove free radicals”.
